One assay concerns the target T1, ΔF508-CFTR (Homo sapiens, UniProt P13569, DEL508-508).
T1 construct: expressed in transfected cells
The assay can be described thus: Membrane potential optical assay (FRET voltage-sensor dyes, VIPR), identification of potentiator compounds. In kind it is cell-based. The note with it: Table 3; assay not given. An outline of the steps:
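NIH3T3 mouse fibroblasts stably expressing ΔF508-CFTR, cultured 24 h at 27 °C, were loaded with FRET voltage dyes CC2-DMPE and DiSBAC2(3). Double-addition format: first addition of Cl⁻-free (gluconate) medium with or without compound; membrane-potential change read as fluorescence on VIPR II.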
T1 sequence (P13569 with tags, fused parts or gaps DEL508-508): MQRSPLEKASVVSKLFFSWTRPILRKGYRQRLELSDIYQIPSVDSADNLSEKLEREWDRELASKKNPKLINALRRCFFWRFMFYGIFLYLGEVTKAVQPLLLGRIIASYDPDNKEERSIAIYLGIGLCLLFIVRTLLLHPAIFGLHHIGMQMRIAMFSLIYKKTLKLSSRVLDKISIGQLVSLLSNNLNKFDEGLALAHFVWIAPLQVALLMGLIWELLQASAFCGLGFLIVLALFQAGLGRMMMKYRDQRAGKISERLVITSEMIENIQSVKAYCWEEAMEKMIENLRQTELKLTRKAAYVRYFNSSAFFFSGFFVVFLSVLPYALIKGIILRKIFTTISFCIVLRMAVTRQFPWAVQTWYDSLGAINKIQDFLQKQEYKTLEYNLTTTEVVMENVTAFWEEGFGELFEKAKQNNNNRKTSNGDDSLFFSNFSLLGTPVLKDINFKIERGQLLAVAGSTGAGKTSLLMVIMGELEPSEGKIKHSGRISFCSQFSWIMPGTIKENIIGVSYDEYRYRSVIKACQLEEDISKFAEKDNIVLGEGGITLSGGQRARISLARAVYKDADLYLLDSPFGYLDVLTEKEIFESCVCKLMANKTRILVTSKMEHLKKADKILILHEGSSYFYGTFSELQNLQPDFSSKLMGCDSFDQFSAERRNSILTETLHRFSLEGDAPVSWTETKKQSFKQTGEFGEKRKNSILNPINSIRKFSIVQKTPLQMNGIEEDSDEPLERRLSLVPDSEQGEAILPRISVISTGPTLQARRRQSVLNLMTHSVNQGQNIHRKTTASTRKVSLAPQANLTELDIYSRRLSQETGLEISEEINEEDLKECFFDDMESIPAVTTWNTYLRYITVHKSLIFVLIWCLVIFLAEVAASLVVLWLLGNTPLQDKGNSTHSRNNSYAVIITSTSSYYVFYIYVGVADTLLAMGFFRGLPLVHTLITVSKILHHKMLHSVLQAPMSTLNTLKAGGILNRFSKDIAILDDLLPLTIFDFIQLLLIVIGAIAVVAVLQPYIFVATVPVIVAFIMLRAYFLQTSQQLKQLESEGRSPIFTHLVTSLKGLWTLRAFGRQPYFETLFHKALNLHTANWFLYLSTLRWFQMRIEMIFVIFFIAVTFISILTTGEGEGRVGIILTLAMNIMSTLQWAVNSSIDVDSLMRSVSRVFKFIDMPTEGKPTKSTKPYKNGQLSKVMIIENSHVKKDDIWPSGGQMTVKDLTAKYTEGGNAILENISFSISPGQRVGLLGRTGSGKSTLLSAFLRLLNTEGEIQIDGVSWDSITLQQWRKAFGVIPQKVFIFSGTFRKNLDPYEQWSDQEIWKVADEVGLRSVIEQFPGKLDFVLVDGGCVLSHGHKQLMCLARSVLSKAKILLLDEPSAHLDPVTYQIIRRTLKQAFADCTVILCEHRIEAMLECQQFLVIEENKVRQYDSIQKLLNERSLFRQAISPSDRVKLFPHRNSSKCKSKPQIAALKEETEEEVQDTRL
The term EC50 denotes the concentration that produces a half-maximal response. With `O=C(Nc1ccc(N2CCCC2)cc1)c1c[nH]c2ccccc2c1=O` [Compound 674, 4-oxo-N-(4-pyrrolidin-1-ylphenyl)-1H-quinoline-3-carboxamide], the EC50 is less than 10 µM. As for `CCc1ccc(N)cc1NC(=O)c1c[nH]c2ccccc2c1=O` [Compound 282, N-(5-amino-2-ethyl-phenyl)-4-oxo-1H-quinoline-3-carboxamide], the EC50 was less than 10 µM.

The assay is the same for the next values; noted with them: Table 3; assay not given; read-out: % Activity (% Efficacy, relative efficacy).
Regarding `CC(C)COC(=O)NCC(C)(C)c1ccc(NC(=O)c2c[nH]c3ccccc3c2=O)cc1` [Compound 251, [2-methyl-2-[4-[(4-oxo-1H-quinolin-3-yl)carbonylamino]phenyl]-propyl]aminoformic acid isobutyl ester], the Emax was 25 to 100%. For `CSc1ccccc1NC(=O)c1c[nH]c2ccccc2c1=O` [Compound 229, N-(2-methylsulfanylphenyl)-4-oxo-1H-quinoline-3-carboxamide], the Emax was in the range of 25 to 100%. On to `COCCOCC(C)(C)c1ccc(NC(=O)c2c[nH]c3ccccc3c2=O)cc1O` [Compound 126, N-[3-hydroxy-4-[2-(2-methoxyethoxy)-1,1-dimethyl-ethyl]-phenyl]-4-oxo-1H-quinoline-3-carboxamide], for which the Emax was in the range of 25 to 100%. Turning to `O=C(Nc1ccc(Oc2ccccc2)cc1)c1c[nH]c2ccccc2c1=O` [Compound 267, 4-oxo-N-(4-phenoxyphenyl)-1H-quinoline-3-carboxamide], the Emax was in the range of 25 to 100%.

As for `O=C(Nc1ccc(C(F)(F)F)nc1)c1c[nH]c2ccccc2c1=O` [Compound 197, 4-oxo-N-[6-(trifluoromethyl)-3-pyridyl]-1H-quinoline-3-carboxamide], the Emax is less than 25%. With `CN(C)c1ccc2[nH]cc(C(=O)Nc3cc(O)c(C(C)(C)C)cc3C(C)(C)C)c(=O)c2c1` [Compound 544, 6-dimethylamino-N-(5-hydroxy-2,4-ditert-butyl-phenyl)-4-oxo-1H-quinoline-3-carboxamide], the Emax lay in the range of 25 to 100%. On to `NC(=O)c1cccc(NC(=O)c2c[nH]c3ccccc3c2=O)c1` [Compound 179, N-(3-carbamoylphenyl)-4-oxo-1H-quinoline-3-carboxamide], for which the Emax is less than 25%.

Turning to `CC(C)(C)c1ccc(NC(=O)c2c[nH]c3ccccc3c2=O)cc1` [Compound 448, 4-oxo-N-(4-tert-butylphenyl)-1H-quinoline-3-carboxamide], the Emax is 25 to 100%.

`Cc1cccc(C(C)C)c1NC(=O)c1c[nH]c2ccccc2c1=O` [Compound 430, N-(2-isopropyl-6-methyl-phenyl)-4-oxo-1H-quinoline-3-carboxamide]: the Emax fell in the range of 25 to 100%.

For the molecule `CCC(CC)(CC)c1cc(F)c(NC(=O)c2cnc3ccccc3c2O)cc1O` [Compound 34, N-[4-(1,1-diethylpropyl)-2-fluoro-5-hydroxy-phenyl]-4-hydroxy-quinoline-3-carboxamide], the Emax lay within 25 to 100%. Take `O=C(Nc1cc2[nH]ccc2cc1-c1ccccc1)c1c[nH]c2ccccc2c1=O` [Compound 158, 4-Oxo-N-(5-phenyl-1H-indol-6-yl)-1H-quinoline-3-carboxamide]: the Emax lay in the range of 25 to 100%. On the same count and under the same terms, the value for `CC(C)(C)c1ccc(O)cc1NC(=O)c1c[nH]c2ccccc2c1=O` [Compound 662, N-(5-hydroxy-2-tert-butyl-phenyl)-4-oxo-1H-quinoline-3-carboxamide] was more than 100%. As for `CC(CO)(CO)c1ccc(NC(=O)c2c[nH]c3ccccc3c2=O)cc1` [Compound 590, N-[4-[2-hydroxy-1-(hydroxymethyl)-1-methyl-ethyl]phenyl]-4-oxo-1H-quinoline-3-carboxamide], the Emax was less than 25%. The same measure, in the same setting: the value for `Cc1ccc(-c2ccccc2NC(=O)c2c[nH]c3ccccc3c2=O)cc1` [Compound 181, 4-oxo-N-[2-(p-tolyl)phenyl]-1H-quinoline-3-carboxamide] was 25 to 100%; that for `Cc1ccc(C)n1-c1ccccc1NC(=O)c1c[nH]c2ccccc2c1=O` [Compound 297, N-[2-(2,5-dimethyl-1H-pyrrol-1-yl)phenyl]-4-oxo-1H-quinoline-3-carboxamide] was 25 to 100%; that for `CC(C)c1ccc(NC(=O)c2c[nH]c3cccc(O)c3c2=O)cc1O` [Compound 587, 5-hydroxy-N-(3-hydroxy-4-isopropyl-phenyl)-4-oxo-1H-quinoline-3-carboxamide] was 25 to 100%. `Cc1cccc2[nH]cc(C(=O)Nc3ccc(N4CCC[C@@H]4C)cc3C(F)(F)F)c(=O)c12` [Compound 511, (S)-5-methyl-N-(4-(2-methylpyrrolidin-1-yl)-2-(trifluoromethyl)phenyl)-4-oxo-1,4-dihydroquinoline-3-carboxamide]: the Emax lay within 25 to 100%. As to `COc1ccc(NC(=O)c2c[nH]c3ccccc3c2=O)c(OC)n1` [Compound 193, N-(2,6-dimethoxy-3-pyridyl)-4-oxo-1H-quinoline-3-carboxamide], the Emax was in the range of 25 to 100%. As for `CS(=O)(=O)c1ccc(-c2ccccc2NC(=O)c2c[nH]c3ccccc3c2=O)cc1` [Compound 326, N-[2-(4-methylsulfonylphenyl)phenyl]-4-oxo-1H-quinoline-3-carboxamide], the Emax lay in the range of 25 to 100%. On the same count and under the same terms, the same measure for `O=C(Nc1ccccc1-c1cc(F)ccc1F)c1c[nH]c2ccccc2c1=O` [Compound 384, N-[2-(2,5-difluorophenyl)phenyl]-4-oxo-1H-quinoline-3-carboxamide]: 25 to 100%; for `COc1ncc(-c2ccccc2NC(=O)c2c[nH]c3ccccc3c2=O)c(OC)n1` [Compound 97, N-[2-(2,4-dimethoxypyrimidin-5-yl)phenyl]-4-oxo-1H-quinoline-3-carboxamide]: 25 to 100%. As for `O=C(Nc1ccc(N2CCCC2)cc1)c1c[nH]c2ccccc2c1=O` [Compound 674, 4-oxo-N-(4-pyrrolidin-1-ylphenyl)-1H-quinoline-3-carboxamide], the Emax was 25 to 100%. For the molecule `COC(=O)NCC(C)(C)c1ccc(NC(=O)c2c[nH]c3ccccc3c2=O)cc1` [Compound 323, [2-Methyl-2-[4-[(4-oxo-1H-quinolin-3-yl)carbonylamino]phenyl]-propyl]aminoformic acid methyl ester], the Emax fell in the range of 25 to 100%.

For `CC(C)(C)c1cc(C(F)(F)F)c(NC(=O)c2c[nH]c3cccc(O)c3c2=O)cc1O` [Compound 487, 5-hydroxy-N-[5-hydroxy-4-tert-butyl-2-(trifluoromethyl)phenyl]-4-oxo-1H-quinoline-3-carboxamide], the Emax was in the range of 25 to 100%. Still for that read-out and setting: the same measure for `O=C(Nc1ccccc1-n1cccc1)c1c[nH]c2ccccc2c1=O` [Compound 293, 4-oxo-N-[2-(1H-pyrrol-1-yl)phenyl]-1H-quinoline-3-carboxamide]: more than 100%; for `CC(C)(C)COC(=O)NCC(C)(C)c1ccc(NC(=O)c2c[nH]c3ccccc3c2=O)cc1` [Compound 341, [2-methyl-2-[4-[(4-oxo-1H-quinolin-3-yl)carbonylamino]phenyl]-propyl]aminoformic acid neopentyl ester]: 25 to 100%; for `CCOc1cccc2c(=O)c(C(=O)Nc3cc(O)c(C(C)(C)C)cc3C(C)(C)C)c[nH]c12` [Compound 616, 8-ethoxy-N-(5-hydroxy-2,4-ditert-butyl-phenyl)-4-oxo-1H-quinoline-3-carboxamide]: less than 25%.

For the molecule `O=C(Nc1cccc(O)c1)c1c[nH]c2ccccc2c1=O` [Compound 144, N-(3-hydroxyphenyl)-4-oxo-1H-quinoline-3-carboxamide], the Emax lay within 25 to 100%. As to `O=C(Nc1ccc(N2CCOCC2)nc1)c1c[nH]c2ccccc2c1=O` [Compound 400, N-(6-morpholino-3-pyridyl)-4-oxo-1H-quinoline-3-carboxamide], the Emax was less than 25%. Turning to `COc1cc(NC(=O)c2c[nH]c3ccccc3c2=O)cc2ccccc12` [Compound 717, N-(4-methoxy-2-naphthyl)-4-oxo-1H-quinoline-3-carboxamide], the Emax was in the range of 25 to 100%. The same measure, in the same setting: the same measure for `CCOC(=O)Nc1cc(NC(=O)c2c[nH]c3ccccc3c2=O)ccc1C` [Compound 141, [2-methyl-5-[(4-oxo-1H-quinolin-3-yl)carbonylamino]phenyl]aminoformic acid ethyl ester]: 25 to 100%. For `CC(C)(C)c1cc2ccc(NC(=O)c3c[nH]c4ccccc4c3=O)cc2[nH]1` [Compound 320, 4-oxo-N-(2-tert-butyl-1H-indol-6-yl)-1H-quinoline-3-carboxamide], the Emax lay within 25 to 100%. On the same count and under the same terms, the same measure for `CC(C)(C)c1ccc(NC(=O)c2c[nH]c3ccc(F)cc3c2=O)cc1O` [Compound 490, 6-fluoro-N-(3-hydroxy-4-tert-butyl-phenyl)-4-oxo-1H-quinoline-3-carboxamide]: 25 to 100%; for `O=C(Nc1ccc2[nH]nnc2c1)c1c[nH]c2ccccc2c1=O` [Compound 256, N-(1H-benzotriazol-5-yl)-4-oxo-1H-quinoline-3-carboxamide]: less than 25%; for `O=C(Nc1ccc2nccnc2c1)c1c[nH]c2ccccc2c1=O` [Compound 443, 4-oxo-N-quinoxalin-6-yl-1H-quinoline-3-carboxamide]: less than 25%. On the same count and under the same terms, the same measure for `Cn1ccc2ccc(NC(=O)c3c[nH]c4ccccc4c3=O)cc21` [Compound 169, N-(1-methyl-1H-indol-6-yl)-4-oxo-1H-quinoline-3-carboxamide]: 25 to 100%. With `CCc1ccc(N)cc1NC(=O)c1c[nH]c2ccccc2c1=O` [Compound 282, N-(5-amino-2-ethyl-phenyl)-4-oxo-1H-quinoline-3-carboxamide], the Emax is 25 to 100%.

As for `N#Cc1cc2ccc(NC(=O)c3c[nH]c4ccccc4c3=O)cc2[nH]1` [Compound 270, N-(2-cyano-1H-indol-6-yl)-4-oxo-1H-quinoline-3-carboxamide], the Emax fell in the range of 25 to 100%. Still for that read-out and setting: the value for `CC(C)(C)OC(=O)N1CCCc2ccc(NC(=O)c3c[nH]c4ccccc4c3=O)cc21` [Compound 183, 7-[(4-oxo-1H-quinolin-3-yl)carbonylamino]-1,2,3,4-tetrahydroquinoline-1-carboxylic acid tert-butyl ester] was 25 to 100%; that for `O=C(Nc1ccccc1Oc1ccccc1)c1c[nH]c2ccccc2c1=O` [Compound 413, 4-oxo-N-(2-phenoxyphenyl)-1H-quinoline-3-carboxamide] was 25 to 100%; that for `CC(CO)(CO)c1ccc(NC(=O)c2c[nH]c3cccc(O)c3c2=O)cc1` [Compound 493, 5-hydroxy-N-[4-[2-hydroxy-1-(hydroxymethyl)-1-methyl-ethyl]phenyl]-4-oxo-1H-quinoline-3-carboxamide] was 25 to 100%.

Source of the values: US8802700B2 (Vertex Pharmaceuticals Incorporated, priority 2010, dated 2014).
